# Molecular target: purified human Factor XIa (Homo sapiens (Human), UniProt P03951)
# Assay: Factor XIa chromogenic substrate (S-2366) inhibition assay
# Type: biochemical
# Details: substrate S-2366, Table 1
# Experimental: The effectiveness of compounds of the present invention as inhibitors of the coagulation factors XIa, VIIa, IXa, Xa, XIIa, plasma kallikrein or thrombin, can be determined using a relevant purified serine protease, respectively, and an appropriate synthetic substrate. The rate of hydrolysis of the chromogenic or fluorogenic substrate by the relevant serine protease was measured both in the absence and presence of compounds of the present invention. […] A decrease in the rate of absorbance or fluorescence change in the presence of inhibitor is indicative of enzyme inhibition. Such methods are known to one skilled in the art. The results of this assay are expressed as the inhibitory constant, Ki. […] JT Baker or Fisher Scientific). […] Values of Ki were determined by allowing the protease to react with the substrate in the presence of the inhibitor. Reactions were allowed to go for periods of 20-180 minutes (depending on the protease) and the velocities (rate of absorbance or fluorescence change versus time) were measured.
# Sequence of purified human Factor XIa (P03951 388-625): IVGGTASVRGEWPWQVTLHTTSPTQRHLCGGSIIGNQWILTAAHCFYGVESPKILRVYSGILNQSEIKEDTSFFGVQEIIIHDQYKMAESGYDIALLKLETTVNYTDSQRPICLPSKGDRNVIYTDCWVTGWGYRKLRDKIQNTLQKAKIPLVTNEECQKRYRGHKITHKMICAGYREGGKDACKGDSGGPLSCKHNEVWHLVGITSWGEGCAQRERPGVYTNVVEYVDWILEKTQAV
# Sequence of purified human Factor XIa (P03951 19-387 partner): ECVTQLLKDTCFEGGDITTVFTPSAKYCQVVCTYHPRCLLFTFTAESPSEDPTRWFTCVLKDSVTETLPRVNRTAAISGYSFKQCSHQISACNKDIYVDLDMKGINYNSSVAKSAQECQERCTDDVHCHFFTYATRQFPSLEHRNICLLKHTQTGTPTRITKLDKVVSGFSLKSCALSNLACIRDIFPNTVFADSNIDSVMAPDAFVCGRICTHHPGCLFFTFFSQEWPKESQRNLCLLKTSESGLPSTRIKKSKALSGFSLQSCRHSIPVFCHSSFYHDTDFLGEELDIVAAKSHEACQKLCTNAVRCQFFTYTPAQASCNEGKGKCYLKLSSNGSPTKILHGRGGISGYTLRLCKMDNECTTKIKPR
row,Ki,Structure (SMILES)
1,< 5 nM,N#Cc1ccc(Cl)c(F)c1/C=C/C(=O)N1CCc2c(cccc2N2CCC(N3CCCC3)CC2)C1C(=O)Nc1ccc(C(=O)O)cc1 (racemic) [Example 155]
2,< 5 nM,COC(=O)c1ccc(NC(=O)C2c3cccc(N4CCC(N5CCCC5)CC4)c3CCN2C(=O)/C=C/c2c(C(C)=O)ccc(Cl)c2F)cc1 (racemic) [Example 175]
3,< 5 nM,CC(=O)c1ccc(Cl)c(F)c1/C=C/C(=O)N1CCc2c(cccc2N2CCS(=O)(=O)CC2)C1C(=O)Nc1ccc(C(=O)O)cc1 (racemic) [Example 215]
4,< 5 nM,O=C(O)c1ccc(NC(=O)C2c3cccc(N4CCC(N5CCNCC5)CC4)c3CCN2C(=O)/C=C/c2c(C(F)(F)F)ccc(Cl)c2F)cc1 (racemic) [Example 228]
5,74.5 nM,N[C@H]1CC[C@H](NC(=O)C2c3cccc(N4CCC(N5CCCC5)CC4)c3CCN2C(=O)/C=C/c2c(-n3cnnn3)ccc(Cl)c2F)CC1 (mixture of isomers) [Example 235]
6,47.1 nM,CC(C)NC(=O)C1c2cccc(N3CCC(N4CCCC4)CC3)c2CCN1C(=O)/C=C/c1c(-n2cnnn2)ccc(Cl)c1F (racemic) [Example 240]
7,2570 nM,CC(C)(C)OC(=O)c1ccc(NC(=O)C2c3cccc(N4CCCN(C(=O)OC(C)(C)C)CC4)c3CCN2C(=O)/C=C/c2c(-n3cnnn3)ccc(Cl)c2F)cc1 (racemic) [Example 257]

# Same assay, conditions: substrate S-2366, activity ranges, Table A
row,Ki,Structure (SMILES)
1,< 5 nM,O=C(O)c1ccc(NC(=O)C2c3cccc(N4CCC5(CC4)OCCO5)c3CCN2C(=O)/C=C/c2c(-n3cnnn3)ccc(Cl)c2F)cc1 (racemic) [Example 142]
2,< 5 nM,O=C1CCC2(CCN(c3cccc4c3CCN(C(=O)/C=C/c3c(-n5cnnn5)ccc(Cl)c3F)C4C(=O)Nc3ccc(C(=O)O)cc3)CC2)O1 (racemic) [Example 145]
3,< 5 nM,O=C(O)c1ccc(NC(=O)C2c3cccc(N4CCC5(CCNCC5)CC4)c3CCN2C(=O)/C=C/c2c(-n3cnnn3)ccc(Cl)c2F)cc1 (racemic) [Example 146]
4,< 5 nM,N#CC1CCN(c2cccc3c2CCN(C(=O)/C=C/c2c(-n4cnnn4)ccc(Cl)c2F)C3C(=O)Nc2ccc(C(=O)O)cc2)CC1 (racemic) [Example 147]
5,< 5 nM,O=C(O)c1ccc(NC(=O)C2c3cccc(N4CCC(O)CC4)c3CCN2C(=O)/C=C/c2c(-n3cnnn3)ccc(Cl)c2F)cc1 (racemic) [Example 148]
6,< 5 nM,COC1CCN(c2cccc3c2CCN(C(=O)/C=C/c2c(-n4cnnn4)ccc(Cl)c2F)C3C(=O)Nc2ccc(C(=O)O)cc2)CC1 (racemic) [Example 150]
7,< 5 nM,CC1(C(=O)N2CCCC2)CCN(c2cccc3c2CCN(C(=O)/C=C/c2c(-n4cnnn4)ccc(Cl)c2F)C3C(=O)Nc2ccc(C(=O)O)cc2)CC1 (racemic) [Example 152]
8,5 to 10 nM,CC(=O)c1ccc(Cl)c(F)c1/C=C/C(=O)N1CCc2c(cccc2N2CCC(N3CCCC3)CC2)C1C(=O)Nc1ccc(C(=O)OC(C)(C)C)cc1 (racemic) [Example 153]
9,< 5 nM,CC(=O)c1ccc(Cl)c(F)c1/C=C/C(=O)N1CCc2c(cccc2N2CCC(N3CCCC3)CC2)C1C(=O)Nc1ccc(C(=O)O)cc1 (racemic) [Example 154]
10,5 to 10 nM,O=C(O)c1ccc(NC(=O)C2c3cccc(N4CCC(N5CCCC5)CC4)c3CCN2C(=O)/C=C/c2cccc(Cl)c2)cc1 (racemic) [Example 156]
11,5 to 10 nM,O=C(O)c1ccc(NC(=O)C2c3cccc(N4CCC(N5CCCC5)CC4)c3CCN2C(=O)/C=C/c2cccc(Cl)c2Cl)cc1 (racemic) [Example 157]
12,< 5 nM,O=C(O)c1ccc(NC(=O)C2c3cccc(N4CCC(N5CCCC5)CC4)c3CCN2C(=O)/C=C/c2cc(Cl)ccc2C(F)F)cc1 (racemic) [Example 158]
13,< 5 nM,O=C(O)c1ccc(NC(=O)C2c3cccc(N4CCC(N5CCCC5)CC4)c3CCN2C(=O)/C=C/c2cc(Cl)ccc2OC(F)F)cc1 (racemic) [Example 159]
14,5 to 10 nM,CCOC(=O)c1ccc(NC(=O)C2c3cccc(N4CCC(N5CCCC5)CC4)c3CCN2C(=O)/C=C/c2c(C(C)=O)ccc(Cl)c2F)cc1 (racemic) [Example 160]
15,< 5 nM,COc1ccc(Cl)c(F)c1/C=C/C(=O)N1CCc2c(cccc2N2CCC(N3CCCC3)CC2)C1C(=O)Nc1ccc(C(=O)O)cc1 (racemic) [Example 161]
16,< 5 nM,O=C(O)c1ccc(NC(=O)C2c3cccc(N4CCC(N5CCCC5)CC4)c3CCN2C(=O)/C=C/c2c(O)ccc(Cl)c2F)cc1 (racemic) [Example 162]
17,5 to 10 nM,CCOC(=O)c1ccc(NC(=O)C2c3cccc(N4CCC(N5CCCC5)CC4)c3CCN2C(=O)/C=C/c2c(C#N)ccc(Cl)c2F)cc1 (racemic) [Example 165]
18,< 5 nM,O=C(O)c1ccc(NC(=O)C2c3cccc(N4CCC(N5CCCC5)CC4)c3CCN2C(=O)/C=C/c2c(C(F)(F)F)ccc(Cl)c2F)cc1 (racemic) [Example 176]
19,< 5 nM,O=C(O)c1ccc(NC(=O)C2c3cccc(N4CCC(N5CCCC5)CC4)c3CCN2C(=O)/C=C/c2c(F)ccc(Cl)c2F)cc1 (racemic) [Example 180]
20,5 to 10 nM,O=C(O)c1ccc(NC(=O)C2c3cccc(N4CCC(N5CCCC5)CC4)c3CCN2C(=O)/C=C/c2ccccc2F)cc1 (racemic) [Example 181]
21,5 to 10 nM,O=C(O)c1ccc(NC(=O)C2c3cccc(N4CCC(N5CCCC5)CC4)c3CCN2C(=O)/C=C/c2c(F)ccc(F)c2F)cc1 (racemic) [Example 182]
22,< 5 nM,CC(=O)c1ccc(Cl)c(F)c1/C=C/C(=O)N1CCc2c(cccc2N2CCC(C(=O)N(C)C)CC2)C1C(=O)Nc1ccc(C(=O)O)cc1 (racemic) [Example 218]

row,Ki,Structure (SMILES)
1,< 5 nM,CC(=O)c1ccc(Cl)c(F)c1/C=C/C(=O)N1CCc2c(cccc2N2CCC(N3CCOCC3)CC2)C1C(=O)Nc1ccc(C(=O)O)cc1 (racemic) [Example 220]
2,< 5 nM,CN(C)C1CCN(c2cccc3c2CCN(C(=O)/C=C/c2c(C(F)(F)F)ccc(Cl)c2F)C3C(=O)Nc2ccc(C(=O)O)cc2)CC1 (racemic) [Example 223]
3,5 to 10 nM,CN(C)C1CCN(c2cccc3c2CCN(C(=O)/C=C/c2c(F)cccc2C(F)(F)F)C3C(=O)Nc2ccc(C(=O)O)cc2)CC1 (racemic) [Example 224]
4,< 5 nM,O=C(O)c1ccc(NC(=O)C2c3cccc(N4CCS(=O)(=O)CC4)c3CCN2C(=O)/C=C/c2c(C(F)(F)F)ccc(Cl)c2F)cc1 (racemic) [Example 225]
5,5 to 10 nM,CCOC(=O)c1ccc(NC(=O)C2c3cccc(N4CCS(=O)(=O)CC4)c3CCN2C(=O)/C=C/c2c(-n3cnnn3)ccc(Cl)c2F)cc1 (racemic) [Example 226]
6,< 5 nM,O=C(O)c1ccc(NC(=O)C2c3cccc(N4CCC5(CCNC5)CC4)c3CCN2C(=O)/C=C/c2c(C(F)(F)F)ccc(Cl)c2F)cc1 (racemic) [Example 227]
7,100 to 500 nM,COCCCNC(=O)C1c2cccc(N3CCC(N4CCCC4)CC3)c2CCN1C(=O)/C=C/c1c(-n2cnnn2)ccc(Cl)c1F (racemic) [Example 229]
8,100 to 500 nM,CC(C)(C)OC(=O)CCNC(=O)C1c2cccc(N3CCC(N4CCCC4)CC3)c2CCN1C(=O)/C=C/c1c(-n2cnnn2)ccc(Cl)c1F (racemic) [Example 230]
9,100 to 500 nM,O=C(O)CCNC(=O)C1c2cccc(N3CCC(N4CCCC4)CC3)c2CCN1C(=O)/C=C/c1c(-n2cnnn2)ccc(Cl)c1F (racemic) [Example 231]
10,5 to 10 nM,COC(=O)[C@H]1CC[C@H](NC(=O)C2c3cccc(N4CCC(N5CCCC5)CC4)c3CCN2C(=O)/C=C/c2c(-n3cnnn3)ccc(Cl)c2F)CC1 (mixture of isomers) [Example 232]
11,5 to 10 nM,COC(=O)[C@H]1CC[C@@H](NC(=O)C2c3cccc(N4CCC(N5CCCC5)CC4)c3CCN2C(=O)/C=C/c2c(-n3cnnn3)ccc(Cl)c2F)CC1 (mixture of isomers) [Example 233]
12,5 to 10 nM,O=C(N[C@H]1CC[C@H](C(=O)O)CC1)C1c2cccc(N3CCC(N4CCCC4)CC3)c2CCN1C(=O)/C=C/c1c(-n2cnnn2)ccc(Cl)c1F (mixture of isomers) [Example 234]
13,5 to 10 nM,O=C(N[C@H]1CC[C@H](O)CC1)C1c2cccc(N3CCC(N4CCCC4)CC3)c2CCN1C(=O)/C=C/c1c(-n2cnnn2)ccc(Cl)c1F (mixture of isomers) [Example 236]
14,5 to 10 nM,COC(=O)N[C@H]1CC[C@H](NC(=O)C2c3cccc(N4CCC(N5CCCC5)CC4)c3CCN2C(=O)/C=C/c2c(-n3cnnn3)ccc(Cl)c2F)CC1 (mixture of isomers) [Example 238]
15,< 5 nM,O=C(NC1CCCCC1)C1c2cccc(N3CCC(N4CCCC4)CC3)c2CCN1C(=O)/C=C/c1c(-n2cnnn2)ccc(Cl)c1F (racemic) [Example 239]
16,< 5 nM,O=C(O)c1ccc(NC(=O)C2c3cccc(N4CCC5(CC4)OCCO5)c3CCN2C(=O)/C=C/c2c(-n3cnnn3)ccc(Cl)c2F)cc1F (racemic) [Example 255]
17,< 5 nM,O=C(O)c1ccc(NC(=O)C2c3cccc(N4CCCNCC4)c3CCN2C(=O)/C=C/c2c(-n3cnnn3)ccc(Cl)c2F)cc1 (racemic) [Example 256]
18,< 5 nM,O=C(O)c1ccc(NC(=O)C2c3cccc(N4CCCCCC4)c3CCN2C(=O)/C=C/c2c(-n3cnnn3)ccc(Cl)c2F)cc1 (racemic) [Example 258]
19,< 5 nM,CNC(=O)N1CCCN(c2cccc3c2CCN(C(=O)/C=C/c2c(-n4cnnn4)ccc(Cl)c2F)C3C(=O)Nc2ccc(C(=O)O)cc2)CC1 (racemic) [Example 259]
20,< 5 nM,CN(C)CCNC(=O)N1CCCN(c2cccc3c2CCN(C(=O)/C=C/c2c(-n4cnnn4)ccc(Cl)c2F)C3C(=O)Nc2ccc(C(=O)O)cc2)CC1 (racemic) [Example 261]
21,< 5 nM,CN1CCCN(c2cccc3c2CCN(C(=O)/C=C/c2c(-n4cnnn4)ccc(Cl)c2F)C3C(=O)Nc2ccc(C(=O)O)cc2)CC1 (racemic) [Example 262]
